Source: ChEMBL document CHEMBL1201862, “PubChem BioAssay data set” (2004)
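48-hour exposure; five concentrations; linearly interpolated endpoints. GI50 is the concentration that inhibits growth by half.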 Calls of active or inactive are those of the source. Cut-off read from the data, not from the text of the source: active = GI50 up to about 1.1 µM and inactive = higher.

How the values were obtained:
Assay in all cases: NCI-60 cell line screen, 48 h
[1] = system: 786-0
[2] = system: A498
[3] = system: A549
[4] = system: ACHN
[5] = system: BT-549
[6] = system: CAKI-1
[7] = system: CCRF-CEM
[8] = system: COLO 205
[9] = system: DU-145
[10] = system: EKVX
[11] = system: HCC 2998
[12] = system: HCT-116
[13] = system: HCT-15
[14] = system: HL-60
[15] = system: HOP-62
[16] = system: HOP-92
[17] = system: HT-29
[18] = system: Hs-578T
[19] = system: IGROV-1
[20] = system: KM12
[21] = system: LOX IMVI
[22] = system: M14
[23] = system: MCF7
[24] = system: MDA-MB-231
[25] = system: MDA-MB-435
[26] = system: MDA-N
[27] = system: MOLT-4
[28] = system: Malme-3M
[29] = system: NCI-H226
[30] = system: NCI-H23
[31] = system: NCI-H460
[32] = system: NCI-H522
[33] = system: NCI/ADR-RES
[34] = system: OVCAR-3
[35] = system: OVCAR-4
[36] = system: OVCAR-5
[37] = system: OVCAR-8
[38] = system: PC-3
[39] = system: RPMI-8226
[40] = system: RXF 393
[41] = system: SF-268
[42] = system: SF-295
[43] = system: SF-539
[44] = system: SK-MEL-28
[45] = system: SK-MEL-2
[46] = system: SK-MEL-5
[47] = system: SK-OV-3
[48] = system: SN12C
[49] = system: SNB-19
[50] = system: SR
[51] = system: SW-620
[52] = system: T47D
[53] = system: TK-10
[54] = system: U-251
[55] = system: UACC-257
[56] = system: UACC-62
[57] = system: UO-31

Which results are given for `CC12CC3(O)OC(O1)C1(COC(=O)c4ccccc4)C3CC21OC1OC(CO)C(O)C(O)C1O` (configuration not stated)?
GI50 [1]: > 100 µM (inactive); GI50 [2]: > 100 µM (inactive); GI50 [3]: > 100 µM (inactive); GI50 [4]: > 100 µM (inactive); GI50 [5]: > 100 µM (inactive); GI50 [6]: > 100 µM (inactive); GI50 [7]: > 100 µM (inactive); GI50 [8]: > 100 µM (inactive); GI50 [9]: > 100 µM (inactive); GI50 [10]: > 100 µM (inactive); GI50 [11]: > 100 µM (inactive); GI50 [12]: > 100 µM (inactive); GI50 [13]: > 100 µM; GI50 [14]: > 100 µM (inactive); GI50 [15]: > 100 µM (inactive); GI50 [16]: > 100 µM (inactive); GI50 [17]: > 100 µM (inactive); GI50 [18]: > 100 µM (inactive); GI50 [19]: > 100 µM (inactive); GI50 [20]: > 100 µM (inactive); GI50 [21]: > 100 µM (inactive); GI50 [22]: > 100 µM (inactive); GI50 [23]: > 100 µM (inactive); GI50 [24]: > 100 µM (inactive); GI50 [25]: > 100 µM (inactive); GI50 [26]: > 100 µM (inactive); GI50 [27]: > 100 µM (inactive); GI50 [28]: > 100 µM (inactive); GI50 [29]: > 100 µM (inactive); GI50 [30]: > 100 µM (inactive); GI50 [31]: > 100 µM (inactive); GI50 [32]: > 100 µM (inactive); GI50 [33]: > 100 µM (inactive); GI50 [34]: > 100 µM (inactive); GI50 [35]: > 100 µM (inactive); GI50 [36]: > 100 µM (inactive); GI50 [37]: > 100 µM (inactive); GI50 [38]: > 100 µM (inactive); GI50 [39]: > 100 µM (inactive); GI50 [40]: > 100 µM (inactive); GI50 [41]: > 100 µM (inactive); GI50 [42]: > 100 µM (inactive); GI50 [43]: > 100 µM (inactive); GI50 [44]: > 100 µM (inactive); GI50 [45]: > 100 µM (inactive); GI50 [46]: > 100 µM (inactive); GI50 [47]: > 100 µM (inactive); GI50 [48]: > 100 µM (inactive); GI50 [49]: > 100 µM (inactive); GI50 [50]: > 100 µM (inactive); GI50 [51]: > 100 µM (inactive); GI50 [52]: > 100 µM (inactive); GI50 [53]: > 100 µM (inactive); GI50 [54]: > 100 µM (inactive); GI50 [55]: > 100 µM (inactive); GI50 [56]: > 100 µM (inactive); GI50 [57]: > 100 µM (inactive)
